# According to ChEMBL document CHEMBL2429721, “Novel 2,6-bis(4-methoxyphenyl)-1-methylpiperidin-4-one oxime esters: synthesis and a new insight into their antioxidant and antimicrobial potential” (Med Chem Res, 2013):
# What was measured:
# Type in all cases: functional
# Staphylococcus aureus [1] = assay: Antibacterial activity against Staphylococcus aureus ATCC 25923 assessed as growth inhibition at 500 ug/mL after 24 hrs by agar well plate method; conditions: ATCC 25923, 24 h, read-out: DIZ
# Aspergillus flavus [2] = assay: Antifungal activity against Aspergillus flavus MTCC 3306 assessed as growth inhibition at 500 ug/mL after 72 hrs by agar well plate method; conditions: MTCC 3306, 72 h, read-out: DIZ
# [3] = Antifungal activity against Chrysosporium keratinophilum MTCC 2827 assessed as growth inhibition at 500 ug/mL after 72 hrs by agar well plate method
# Staphylococcus aureus [4] = assay: Antibacterial activity against Staphylococcus aureus ATCC 25923 assessed as growth inhibition at 1000 ug/mL after 24 hrs by agar well plate method; conditions: ATCC 25923, 24 h, read-out: DIZ
# Escherichia coli [5] = assay: Antibacterial activity against Escherichia coli ATCC 25922 assessed as growth inhibition at 1000 ug/mL after 24 hrs by agar well plate method; conditions: ATCC 25922, 24 h, read-out: DIZ
# Pseudomonas aeruginosa [6] = assay: Antibacterial activity against Pseudomonas aeruginosa ATCC 27853 assessed as growth inhibition at 500 ug/mL after 24 hrs by agar well plate method; conditions: ATCC 27853, 24 h, read-out: DIZ
# Pseudomonas aeruginosa [7] = assay: Antibacterial activity against Pseudomonas aeruginosa ATCC 27853 assessed as growth inhibition at 1000 ug/mL after 24 hrs by agar well plate method; conditions: ATCC 27853, 24 h, read-out: DIZ
# Candida albicans [8] = assay: Antifungal activity against Candida albicans MTCC 3017 assessed as growth inhibition at 1000 ug/mL after 72 hrs by agar well plate method; conditions: MTCC 3017, 72 h, read-out: DIZ
# [9] = test system: Radical scavenging activity; assay: Antioxidant activity assessed as DPPH free radical scavenging activity after 20 mins by UV-visible spectrophotometric analysis
# Candida albicans [10] = assay: Antifungal activity against Candida albicans MTCC 3017 assessed as growth inhibition at 500 ug/mL after 72 hrs by agar well plate method; conditions: MTCC 3017, 72 h, read-out: DIZ
# [11] = Antifungal activity against Chrysosporium keratinophilum MTCC 2827 assessed as growth inhibition at 1000 ug/mL after 72 hrs by agar well plate method
# Escherichia coli [12] = assay: Antibacterial activity against Escherichia coli ATCC 25922 assessed as growth inhibition at 500 ug/mL after 24 hrs by agar well plate method; conditions: ATCC 25922, 24 h, read-out: DIZ
# [13] = Antioxidant activity assessed as ferric ion reducing activity at 10 uM after 20 mins by FRAP assay
# [14] = Antioxidant activity assessed as ABTS free radical scavenging activity after 30 mins
# Aspergillus flavus [15] = assay: Antifungal activity against Aspergillus flavus MTCC 3306 assessed as growth inhibition at 1000 ug/mL after 72 hrs by agar well plate method; conditions: MTCC 3306, 72 h, read-out: DIZ
# [16] = Antioxidant activity assessed as cupric ion reducing activity at 10 uM after 30 mins by CUPRAC assay
SMILES,IC50 [9],IC50 [14],zone of inhibition at 500 µg/mL (Staphylococcus aureus [1]),zone of inhibition at 500 µg/mL (Aspergillus flavus [2]),inhibition zone (IZ) [3],zone of inhibition at 1000 µg/mL (Staphylococcus aureus [4]),zone of inhibition at 1000 µg/mL (Escherichia coli [5]),zone of inhibition at 500 µg/mL (Pseudomonas aeruginosa [6]),zone of inhibition at 1000 µg/mL (Pseudomonas aeruginosa [7]),zone of inhibition at 1000 µg/mL (Candida albicans [8]),zone of inhibition at 500 µg/mL (Candida albicans [10]),inhibition zone (IZ) [11],zone of inhibition at 500 µg/mL (Escherichia coli [12]),Activity [13],zone of inhibition at 1000 µg/mL (Aspergillus flavus [15]),Activity [16]
COc1ccc(C2CC(=NOC(=O)c3ccccc3O)CC(c3ccc(OC)cc3)N2C)cc1 (configuration not stated),19 µM,29 µM,4 mm,2 mm,3 mm,4 mm,5 mm,3 mm,4 mm,6 mm,2 mm,5 mm,3 mm,0.33,3 mm,0.272
COc1ccc(C2CC(=NOC(=O)c3ccc([N+](=O)[O-])cc3)CC(c3ccc(OC)cc3)N2C)cc1 (configuration not stated),120 µM,280 µM,3 mm,2 mm,3 mm,7 mm,7 mm,5 mm,8 mm,6 mm,7 mm,4 mm,3 mm,0.216,3 mm,0.157
COc1ccc(C2CC(=NO)CC(c3ccc(OC)cc3)N2C)cc1 (configuration not stated),165 µM,380 µM,0 mm,0 mm,1 mm,1 mm,1 mm,0 mm,1 mm,1 mm,1 mm,1 mm,0 mm,0.127,1 mm,0.164

# Second part, led by results:
IC50 [9],IC50 [14],SMILES,zone of inhibition at 500 µg/mL (Staphylococcus aureus [1]),zone of inhibition at 500 µg/mL (Aspergillus flavus [2]),inhibition zone (IZ) [3],zone of inhibition at 1000 µg/mL (Staphylococcus aureus [4]),zone of inhibition at 1000 µg/mL (Escherichia coli [5]),zone of inhibition at 500 µg/mL (Pseudomonas aeruginosa [6]),zone of inhibition at 1000 µg/mL (Pseudomonas aeruginosa [7]),zone of inhibition at 1000 µg/mL (Candida albicans [8]),zone of inhibition at 500 µg/mL (Candida albicans [10]),inhibition zone (IZ) [11],zone of inhibition at 500 µg/mL (Escherichia coli [12]),Activity [13],zone of inhibition at 1000 µg/mL (Aspergillus flavus [15]),Activity [16]
86 µM,152 µM,COc1ccc(C2CC(=NOC(=O)c3ccc(F)cc3)CC(c3ccc(OC)cc3)N2C)cc1 (configuration not stated),9 mm,10 mm,7 mm,13 mm,17 mm,15 mm,19 mm,16 mm,10 mm,9 mm,12 mm,0.236,12 mm,0.163
32 µM,68 µM,COc1ccc(C(=O)ON=C2CC(c3ccc(OC)cc3)N(C)C(c3ccc(OC)cc3)C2)cc1 (configuration not stated),1 mm,4 mm,3 mm,3 mm,2 mm,3 mm,4 mm,7 mm,5 mm,3 mm,1 mm,0.31,5 mm,0.245
186 µM,136 µM,COc1ccc(C2CC(=NOC(=O)c3cccc(Cl)c3)CC(c3ccc(OC)cc3)N2C)cc1 (configuration not stated),7 mm,6 mm,5 mm,9 mm,12 mm,8 mm,11 mm,10 mm,7 mm,7 mm,7 mm,0.243,7 mm,0.179
98 µM,135 µM,COc1ccc(C2CC(=NOC(=O)c3ccc(Cl)cc3)CC(c3ccc(OC)cc3)N2C)cc1 (configuration not stated),8 mm,5 mm,7 mm,12 mm,16 mm,12 mm,16 mm,11 mm,10 mm,8 mm,10 mm,0.258,8 mm,0.192
